As a reminder, the pIC50 is the negative decadic logarithm of the IC50, by convention in mol/L. Read a high pIC50 as a low IC50.

Molecules are shown by their SMILES. pIC50: −log10 of the molar value.

Experiment [1] deals with T1, C-RAF (Homo sapiens, UniProt P04049, Y340E/Y341E).
T1 construct: His tag (implied by nickel chromatography) (cleaved yes); StrepII tag (cleaved yes); made in house; host or cells: Sf9 insect cells (baculovirus), CRAF and h14-3-3 zeta co-expressed; MEK1 substrate from E. coli
T1 sequence (P04049 whole entry Y340E/Y341E): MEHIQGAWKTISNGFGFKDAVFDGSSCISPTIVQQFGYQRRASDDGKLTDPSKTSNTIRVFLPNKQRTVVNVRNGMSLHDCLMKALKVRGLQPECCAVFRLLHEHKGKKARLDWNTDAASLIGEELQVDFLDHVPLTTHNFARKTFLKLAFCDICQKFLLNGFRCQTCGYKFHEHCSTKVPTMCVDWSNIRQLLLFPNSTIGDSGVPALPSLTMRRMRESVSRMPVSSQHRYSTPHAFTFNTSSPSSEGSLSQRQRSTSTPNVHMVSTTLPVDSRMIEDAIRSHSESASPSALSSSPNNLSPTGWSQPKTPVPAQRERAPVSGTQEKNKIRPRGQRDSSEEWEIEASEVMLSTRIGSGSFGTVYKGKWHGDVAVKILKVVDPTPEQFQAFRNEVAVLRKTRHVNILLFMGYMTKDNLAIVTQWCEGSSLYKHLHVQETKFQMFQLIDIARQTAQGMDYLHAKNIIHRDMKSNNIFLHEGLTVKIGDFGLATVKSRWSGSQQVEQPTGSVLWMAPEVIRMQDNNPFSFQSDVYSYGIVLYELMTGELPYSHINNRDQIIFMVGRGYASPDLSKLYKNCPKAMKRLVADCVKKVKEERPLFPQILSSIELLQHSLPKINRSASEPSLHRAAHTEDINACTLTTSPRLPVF
T1 sequence (P63104 whole entry partner): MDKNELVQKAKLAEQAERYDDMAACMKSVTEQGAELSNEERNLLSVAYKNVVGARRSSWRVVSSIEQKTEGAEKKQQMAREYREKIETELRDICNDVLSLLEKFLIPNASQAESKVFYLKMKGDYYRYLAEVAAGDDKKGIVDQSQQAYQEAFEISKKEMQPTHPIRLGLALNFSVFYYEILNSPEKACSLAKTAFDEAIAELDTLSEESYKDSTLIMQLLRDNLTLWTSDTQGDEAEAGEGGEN
The experiment can be described thus: In vitro Raf activity determination (Alpha Screen, biotinylated kinase-dead MEK1 substrate), C-Raf. Type of experiment: biochemical. As to conditions: c-Raf approximately 4 nM; ATP 1 μM; pre-incubation 60 minutes; reaction 1 hour at room temperature. In short, it runs like this:
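Full-length C-Raf carrying Y340E/Y341E, co-expressed with 14-3-3ζ in Sf9 cells, at approximately 4 nM, with approximately 10 nM biotinylated kinase-dead MEK1 (K97R) and 1 μM ATP, pH 7.5. Compound preincubated 60 min, reaction 1 hour at room temperature. Phospho-MEK read by AlphaScreen; IC50 by non-linear regression.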

The target of experiment [2] is T2, b-Raf (V600E) (Homo sapiens, UniProt P15056, V600E).
T2 construct: made in house
T2 sequence (P15056 whole entry V600E): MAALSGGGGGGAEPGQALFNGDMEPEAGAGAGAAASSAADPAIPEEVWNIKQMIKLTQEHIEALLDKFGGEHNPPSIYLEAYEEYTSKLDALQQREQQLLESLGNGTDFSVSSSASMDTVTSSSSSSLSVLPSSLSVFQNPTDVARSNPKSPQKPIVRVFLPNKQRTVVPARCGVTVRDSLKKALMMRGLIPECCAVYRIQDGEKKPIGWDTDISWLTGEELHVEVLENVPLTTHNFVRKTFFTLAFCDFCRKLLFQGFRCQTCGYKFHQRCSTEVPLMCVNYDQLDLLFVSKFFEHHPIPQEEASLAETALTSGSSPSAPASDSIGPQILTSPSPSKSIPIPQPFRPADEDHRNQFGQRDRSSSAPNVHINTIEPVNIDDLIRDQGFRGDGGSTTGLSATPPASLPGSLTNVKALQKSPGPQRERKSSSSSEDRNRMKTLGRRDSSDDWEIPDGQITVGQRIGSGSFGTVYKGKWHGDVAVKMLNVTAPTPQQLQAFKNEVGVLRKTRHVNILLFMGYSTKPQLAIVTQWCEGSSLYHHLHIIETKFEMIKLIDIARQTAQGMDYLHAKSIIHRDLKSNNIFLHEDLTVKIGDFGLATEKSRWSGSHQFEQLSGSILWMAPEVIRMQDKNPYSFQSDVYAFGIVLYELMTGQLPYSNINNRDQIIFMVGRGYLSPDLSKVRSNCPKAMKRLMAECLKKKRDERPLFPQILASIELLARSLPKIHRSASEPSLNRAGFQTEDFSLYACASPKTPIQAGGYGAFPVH
In words: In vitro Raf activity determination (Alpha Screen, biotinylated kinase-dead MEK1 substrate), B-Raf. The class given is biochemical. As to conditions: b-Raf (V600E) approximately 4 pM; ATP 10 μM; pre-incubation 60 minutes; reaction 3 hours at room temperature. The method, boiled down: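 Activated b-Raf(V600E) (~4 pM) pre-incubated 60 min with compound and biotinylated kinase-dead (K97R) MEK1 (~10 nM), then reacted 3 h at room temperature with 10 μM ATP in 50 mM Tris pH 7.5, 15 mM MgCl2, 0.01% BSA, 1 mM DTT. Phospho-MEK detected by AlphaScreen; IC50 by non-linear regression.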

In the case of `Cc1ncc(NC(=O)c2ccnc(C(C)(C)C#N)c2)cc1-c1cnc(-c2c(C)nn(C)c2C)c(C#N)c1` [Example 114, N-(5′-cyano-2-methyl-6′-(1,3,5-trimethyl-1H-pyrazol-4-yl)-[3,3′-bipyridin]-5-yl)-2-(2-cyanopropan-2-yl)isonicotinainide], the pIC50 in experiment [1] was 8.09; in experiment [2], 7.49.
Regarding `Cc1ncc(NC(=O)c2ccnc(C(F)(F)F)c2)cc1-c1cnc(-c2ccn(C)c(=O)c2)c(C#N)c1` [Example 102, N-(5′-cyano-1″,2-dimethyl-2″-oxo-1″,2″-dihydro-[3,3′:6′,4″- terpyridin]-5-yl)-2-(trifluoromethyl) isonicotinamide], the negative logarithm of the IC50 (pIC50) in experiment [1] is 9.18; in experiment [2] it was 8.50.
Turning to `Cc1ccc(NC(=O)c2cc(C3CC3)on2)cc1-c1cnc(N(C)C)c(C#N)c1` [Example 259, N-(3-(5-cyano-6-(dimethylamino)pyridin-3-yl)-4-methylphenyl)-5-cyclopropylisoxazole-3-carboxamide], the pIC50 in experiment [1] is 9.36; in experiment [2] it was 8.42.
As to `COCCNc1ncc(-c2cc(NC(=O)c3ccnc(C(F)F)c3)ccc2C)cc1C#N` [Example 178, N-(3-(5-cyano-6-((2-methoxyethyl)amino)pyridin-3-yl)-4-methylphenyl)-2-(difluoromethyl) isonicotinamide], the figures for the negative-log IC50 (pIC50) in experiment [1] and in experiment [2] were 9.72 and 8.82, respectively.
`Cc1ncc(NC(=O)c2ccnc(C(C)(C)O)c2)cc1-c1cnc(NC2CCOCC2)c(C#N)c1` [Example 170, N-(5′-cyano-2-methyl-6′-((tetrahydro-2H-pyran-4-yl)amino)-[3,3′-bipyridin]-5-yl)-2-(2-hydroxypropan-2-yl)isonicotinamide]: the pIC50 in experiment [1] is 8.50; in experiment [2] it was 7.92.
`Cc1ccc(NC(=O)c2ccnc(C3(C#N)CC3)c2)cc1-c1cnc(N2CC(C)(O)C2)c(C#N)c1` [Example 220, N-(3-(5-cyano-6-(3-hydroxy-3-methylazetidin-1-yl)pyridin-3-yl)-4-methylphenyl)-2-(1-cyanocyclopropyl) isonicotinamide]: the pIC50 in experiment [1] is 9.74; in experiment [2] it was 9.03.
Consider `Cc1ncc(NC(=O)c2ccnc(C(C)(C)C#N)c2)cc1-c1cnc(N2[C@@H]3CC[C@H]2COC3)c(C#N)c1` [Example 91, N-(6′-((1R,5S)-3-oxa-8-azabicyclo[3.2.1]octan-8-yl)-5′-cyano-2-methyl-[3,3′-bipyridin]-5-yl)-2-(2-cyanopropan-2-yl)isonicotinamide], for which the pIC50 was 9.00 in experiment [1] and 8.44 in experiment [2].
Regarding `Cc1ccc(NC(=O)c2cccc(C(F)(F)F)c2)cc1-c1cnc(N(C)C)c(C#N)c1` [Example 15, N-(3-(5-cyano-6-(dimethylamino)pyridin-3-yl)-4-methylphenyl)-3-(trifluoromethyl) benzamide], the pIC50 in experiment [1] is 10.13; in experiment [2] it was 9.25.
Take `Cc1ccc(NC(=O)c2ccnc(S(C)(=O)=O)c2)cc1-c1cnc(N(C)C)c(C#N)c1` [Example 261, N-(3-(5-cyano-6-(dimethylamino)pyridin-3-yl)-4-methylphenyl)-2-(methylsulfonyl) isonicotinamide]: the values for the negative logarithm of the IC50 (pIC50) in experiment [1] and in experiment [2] were 9.97 and 9.15, respectively.
Consider `Cc1ncc(NC(=O)c2cc(C3CC3)on2)cc1-c1cnc(N(C)C)c(C#N)c1` [Example 262, N-(5′-cyano-6′-(dimethylamino)-2-methyl-[3,3′-bipyridin]-5-yl)-5-cyclopropylisoxazole-3-carboxamide], for which the pIC50 in experiment [1] is 8.67; in experiment [2], 7.96.
As to `Cc1ccc(NC(=O)c2ccnc(C(C)(C)C#N)c2)cc1-c1cncc(C#N)c1` [Example 35, 2-(2-cyanopropan-2-yl)-N-(3-(5-cyanopyridin-3-yl)-4-methylphenyl) isonicotinamide], the pIC50 in experiment [1] was 8.71; in experiment [2] it was 7.95.
`Cc1ncc(NC(=O)c2ccnc(C(C)(C)C#N)c2)cc1-c1cnc(N2CCS(=O)(=O)CC2)c(C#N)c1` [Example 55, N-(5′-cyano-6′-(1,1-dioxidothiomorpho-lino)-2-methyl-[3,3′-bipyridin]-5-yl)-2-(2-cyanopropan-2-yl)isonicotinamide]: the pIC50 was 8.63 in experiment [1] and 7.94 in experiment [2].
Take `Cc1ncc(NC(=O)c2ccnc(C(C)(C)C#N)c2)cc1-c1cnc(N)c(C#N)c1` [Example 38, N-(6′-amino-5′-cyano-2-methyl-[3,3′-bipyridin]-5-yl)-2-(2-cyanopropan-2-yl)isonicotinamide]: the pIC50 was 8.74 in experiment [1] and 7.78 in experiment [2].
Turning to `Cc1ccc(NC(=O)c2ccnc(S(C)(=O)=O)c2)cc1-c1cnc(N2CCNCC2)c(C#N)c1` [Example 152, N-(3-(5-cyano-6-(piperazin-1-yl)pyridin-3-yl)-4-methylphenyl)-2-(methylsulfonyl) isonicotinamide], the figures for the pIC50 in experiment [1] and in experiment [2] were 9.15 and 8.25, respectively.
In the case of `CCCNc1ncc(-c2cc(NC(=O)c3ccnc(C(F)(F)F)c3)ccc2C)cc1C#N` [Example 40, N-(3-(5-cyano-6-(propylamino)pyridin-3-yl)-4-methylphenyl)-2-(trifluoromethyl) isonicotinamide], the pIC50 in experiment [1] was 9.63; in experiment [2], 8.80.
Take `Cc1ccc(NC(=O)c2ccnc(C(C)(C)C#N)c2)cc1-c1cnc(N2CC(C)(O)C2)c(C#N)c1` [Example 29, N-(3-(5-cyano-6-(3-hydroxy-3-methylazetidin-1-yl)pyridin-3-yl)-4-methylphenyl)-2-(2-cyanopropan-2-yl)isonicotinamide]: the results for the pIC50 in experiment [1] and in experiment [2] were 9.17 and 8.39, respectively.
For `Cc1ncc(NC(=O)c2cc(C(C)(C)N)cc(C(F)(F)F)c2)cc1-c1cnc(N2CCOCC2)c(C#N)c1` [Example 246, 3-(2-aminopropan-2-yl)-N-(5′-cyano-2-methyl-6′-morpholino-[3,3′-bipyridin]-5-yl)-5-(trifluoromethyl) benzamide], the pIC50 in experiment [1] was 8.73; in experiment [2], 8.11.
Consider `Cc1ccc(NC(=O)c2ccnc(C(F)(F)F)c2)cc1-c1cnc(N2CC(O)C2)c(C#N)c1` [Example 63, N-(3-(5-cyano-6-(3-hydroxyazetidin-1-yl)pyridin-3-yl)-4-methylphenyl)-2-(trifluoromethyl) isonicotinamide], for which the pIC50 in experiment [1] was 9.92; in experiment [2], 9.31.
For `Cc1ccc(NC(=O)c2ccnc(C3(C#N)CC3)c2)cc1-c1cnc(N2CCOCC2)c(C#N)c1` [Example 147, N-(3-(5-cyano-6-morpholinopyridin-3-yl)-4-methylphenyl)-2-(1-cyanocyclopropyl) isonicotinamide], in that order: 9.94 and 9.30.
Turning to `Cc1ncc(NC(=O)c2ccnc(C(C)(C)C#N)c2)cc1-c1cnc(NC(C)C)c(C#N)c1` [Example 28, N-(5′-cyano-6′-(isopropylamino)-2-methyl-[3,3′-bipyridin]-5-yl)-2-(2-cyanopropan-2-yl)isonicotinamide], the values for the negative logarithm of the IC50 (pIC50) in experiment [1] and in experiment [2] were 8.59 and 8.01, respectively.
As to `CNc1ncc(-c2cc(NC(=O)c3cccc(C(F)(F)F)c3)ccc2C)cc1C#N` [Example 5, N-(3-(5-cyano-6-(methylamino)pyridin-3-yl)-4-methylphenyl)-3-(trifluoromethyl) benzamide], the pIC50 in experiment [1] is 9.74; in experiment [2] it was 8.88.
As to `Cc1ncc(NC(=O)c2ccnc(C(C)(C)C#N)c2)cc1-c1cnc(N2CC(O)C2)c(C#N)c1` [Example 65, N-(5′-cyano-6′-(3-hydroxyazetidin-1-yl)-2-methyl-[3,3′-bipyridin]-5-yl)-2-(2-cyanopropan-2-yl)isonicotinamide], the pIC50 in experiment [1] is 8.57; in experiment [2] it was 7.84.
For `Cc1ncc(NC(=O)c2ccnc(C(F)(F)F)c2)cc1-c1cnc(N2CCNCC2)c(C#N)c1` [Example 70, N-(5′-cyano-2-methyl-6′-(piperazin-1-yl)-[3,3′-bipyridin]-5-yl)-2-(trifluoromethyl) isonicotinamide], in that order: 9.38 and 9.00.
For `CCn1cc(C(=O)Nc2cnc(C)c(-c3cnc(N4CC(C)(O)C4)c(C#N)c3)c2)cc(C(F)(F)F)c1=O` [Example 191, N-(5′-cyano-6′-(3-hydroxy-3-methylazetidin-1-yl)-2-methyl-[3,3′-bipyridin]-5-yl)-1-ethyl-6-oxo-5-(trifluoromethyl)-1,6-dihydropyridine-3-carboxamide] the same measures were 8.28 and 7.51.
For the molecule `Cc1ncc(NC(=O)c2cnnc(C(C)(C)C#N)c2)cc1-c1cnc(N2CC(C)(O)C2)c(C#N)c1` [Example 186, N-(5′-cyano-6′-(3-hydroxy-3-methylazetidin-1-yl)-2-methyl-[3,3′-bipyridin]-5-yl)-6-(2-cyanopropan-2-yl)pyridazine-4-carboxamide], the pIC50 in experiment [1] is 7.99; in experiment [2], 7.28.
Consider `COCCNc1ncc(-c2cc(NC(=O)c3cc(C(F)(F)F)ccn3)ccc2C)cc1C#N` [Example 228, N-(3-(5-cyano-6-((2-methoxyethyl)amino)pyridin-3-yl)-4-methylphenyl)-4-(trifluoromethyl) picolinamide], for which the pIC50 in experiment [1] is 9.39; in experiment [2], 8.70.

Source of the values: patent US10392404B2, “Compounds and compositions as kinase inhibitors” (NOVARTIS AG, priority 2014, dated 2019).
